According to patent publication US6671540B1, “Methods and systems for detecting abnormal tissue using spectroscopic techniques” (priority 1990, dated 2003):

Key:
hippocampal slice = assay: Stimulation-evoked afterdischarge activity in hippocampal slice (field recording and intrinsic optical signal); format: cell-based, rat
Description: Sprague-Dawley rats (male and female; 25 to 35 days old) were prepared as described in Aghajanian, A. K. and Rasmussen, K., Synapse 31:331, 1989; and Buckmaster, P. S., Strowbridge, B. W., Schwartzdroin, P. A., J. Neurophysiol. 70:1281, 1993. In most hippocampal slice experiments, simultaneous extracellular field electrode recordings were obtained from CA1 and CA3 areas. For stimulation-evoked afterdischarge (13 slices, 8 animals), the concentration of Mg^2+ in the bathing medium was reduced to 0.9 mM. A bipolar tungsten stimulating electrode was placed on the Schaffer collaterals to evoke synaptically driven field responses in CA1; stimuli consisted to 100 to 300-μs-duration pulses at an intensity of four times population-spike threshold. Afterdischarges were evoked by a 2-s train of such stimuli delivered at 60 Hz. […] In all treatments, perfusion with furosemide-containing medium was begun after a consistent level of bursting had been established.
For imaging of intrinsic optical signals, the tissue was illuminated with a beam of white light (tungsten filament light and lens system; Dedotec USA, Lodi, N.J.) directed through the microscope condenser. The light was controlled and regulated (power supply: Lambda Electronics, Melville, N.Y.) to minimize fluctuations and filtered (695 nm long-pass) so that the slice was transilluminated with long wavelengths (red). Image frames were acquired with a charge-coupled device camera (Dage-MTI) at 30 Hz and were digitized at 8 bits with a spatial resolution of 512 by 480 pixels by means of an Imaging Technology Series 151 imaging system; gains and offsets of the camera-control box and the analog-to-digital board were adjusted to optimize the sensitivity of the system. Imaging hardware was controlled by a 486-PC-compatible computer running software written by D. Hochman and developed with commercially available software tools (Microsoft's C/C++ Compiler and Imaging Technology's ITEX library). To increase signal-to-noise ratio, an averaged image was composed from 16 individual image-frames, integrated over 0.5 s and averaged together. An experimental series typically involved the continuous acquisition of a series of averaged images over a several minute time period; at least 10 of these averaged images were acquired as control images before stimulation. Pseudo-colored images were calculated by subtracting the first control image from subsequently acquired images and assigned a color lookup table to the pixel values. For these images, usually a linear low-pass filter was used to remove high-frequency noise and a linear-histogram stretch was used to map the pixel values over the dynamic range of the system. All operations on these images were linear so that quantitative information was preserved.

[1] = tested on: low grade CNS tumor (astrocytoma, grade 1); assay: Intraoperative optical imaging of dye uptake and clearance, low grade human CNS tumor; format: in vivo; conditions: 1 mg/kg iv bolus
Source text: (§1) The procedure used in Examples 1-4 was as follows. The area of interest was evenly illuminated by a fiber optic light source with the radiation passing through a beam splitter, controlled by a D.C. regulated power supply (Lambda, Inc.) and passed through a 695 nm longpass filter. Images were acquired with a CCD camera (COHU 6500) fitted to the operating microscope with a specially modified cineadaptor. The cortex was stabilized with a glass footplate. Images were acquired at 30 Hz and digitized at 8 bits (512×480 pixels, using an Imaging Technology, Inc. Series 151 system, Woburn, Mass.). Geometrical transformations were applied to images to compensate for small amounts of patient motion (Wohlberg, Digital Imaging Warping, IEEE Computer Society: Los Alamitos, Calif., 1988). […] Raw data (i.e., no digital enhancement) were used for determining the average optical change in specified regions (average size box was 30×30 pixels or 150-250 um^2). For pseudocolor images, a linear low pass filter removed high frequency noise and linear histogram transformations were applied. Noise was defined as the standard deviation of fluctuations it! sequentially acquired control images as 0.003-0.009.
An averaged control image was obtained of the particular cortical surface area of interest. FIG. 1A is a gray-scale image of the area of interest prior to dye administration. […]

[2] = tested on: highly malignant CNS tumor (glioblastoma; astrocytoma, grade IV); assay: Intraoperative optical imaging of dye uptake and clearance, malignant human CNS tumor; format: in vivo; conditions: iv injection; 1 minute and 10 minutes after dye injection
Source text: as §1
This example illustrates optical detection of a highly malignant CNS tumor (glioblastoma; astrocytoma, grade IV). […]

rat glioma [3] = conditions: in vivo
Source text: This example illustrates a series of experiments using a rat glioma model through an intact skull to investigate whether the inventive method and inventive device could function in to image tumor tissue through an intact skull and through intact skin prior to or after surgery. Far red wavelengths of emr are known to penetrate through bone and skin. Imaging of tumor tissue was attempted through the intact skull of the rat. The extent of tumor identified was not as accurate as with the cortex exposed; however, the area lying beneath the skull with tumor tissue was easily identified and localized, and continued to concentrate dye after several minutes. […] One minute after dye injection, the dye had been cleared from the normal brain and the only residual signal remained in tumor tissue and the sagital/traverse sinuses.
FIG. 5A is a gray scale image of the cranial surface of a rat. The sagital suture runs down the center of the image. Tumor cells had been injected into the left side some days earlier so that this animal had developed a glioma on t he left hemisphere of its brain. The right hemisphere was normal. Box 1 lays over the suspect region of brain tumor, and Box 2 lays over normal tissue. FIG. 5B is a difference image one second after indocyanine green dye had been intraveneously injected into the animal. The region containing tumor tissue becomes immediately visible through the intact cranium. […] The concentration of dye in the center of this difference image is dye circulating in the sagital sinus.
The optical changes were determined by the average optical change in a box placed directly over the tumor and over the normal hemisphere. The increase in absorption is a function of the concentration of dye in the tissue at a particular time. The graph labeled “extracranial tumor” is a plot of the dynamics of the absorption changes within box 1 from FIG. 5A. The graph labeled “extracranial: normal” is a plot of the dynamics of the absorption change within box 2 from FIG. 5A.
The following imaging apparatus was employed in Examples 5 and 6. […]

rat glioma [4] = conditions: female, F-344, rat, in vivo
Source text: The rat glioma model is a standard predictive model and was used to delineate dye uptake, clearance and overall parameters of optical imaging that result in the best images. The rat glioma model consistently produces reproducible tumors for imaging studies in which the tumor is resected under an operating microscope. A disadvantage of this model is the more sarcoma-like appearance of the tumor and a lesser degree of vascularity compared to human gliomas.
Briefly, the rat glioma model uses an ethylnitrosourea-induced F-344 rat tumor line developed from a clonal population of a spinal malignant astrocytoma. […] The glioma cells were maintained in Weymouth's medium supplemented with 10% fetal calf serum. Viable cells ([…]) were trypsinized from a monolayer culture and implanted stereotaxically into the right cerebral hemisphere of 30 syngeneic female rats, each weighing 140-160 g. The stereotaxic coordinates for right frontal lobe implantation were 4.5 mm anterior to the frontal zero plane, 3 mm right from the midline and 6 mm deep. The rats were anesthetized for implantation. The heads were shaved and scalps opened, and a 1 mm burr hole made at the appropriate coordinates. The cells were injected through a 27 gauge needle, the needle left in place for 30 sec post injection and the hole was covered with bone wax. The scalp was sutured and the animals observed for 3-4 hrs until they returned to normal activity and feeding. The animals were used 10-14 days after tumor implantation. In this model, animals begin to show clinical symptoms from the tumor by 16-19 days, such as decreased activity and feeding, hemiparesis and eventually succumb between 19-27 days from mass effects due to tumor expansion.
Fourteen animals underwent the complete study, including imaging before and after resection of the tumor. The animals were anesthetized with 2% isoflurane, and the femoral vein cannulated for administration of the dye. Anesthesia was maintained with a—chloralose (50 mg/kg administered ip) and urethane (160 mg/kg administered ip). The animals were placed in a stereotaxic holder. Imaging studies were then carried out before or after removal of the cranium. The tumor typically occupied the anterior one half to two thirds of the right hemisphere exposure. The compressed brain without any tumor infiltration was defined as the tumor surround to separate it from the normal hemisphere on the contralateral side.
The following imaging apparatus was employed in Examples 5 and 6. Light was from a tungsten-halogen bulb regulated by a D.C. power supply, passed through a longpass filter (690 nm), and through a right angled prism reflected through a 50 or 100 mm objective lens onto the cortical surface. […]

[5] = 2.5 mM, 20 minutes of perfusion

| SMILES | electrical afterdischarge activity (hippocampal slice; [5]) | stimulation-evoked optical changes (hippocampal slice; [5]) | reversibility after washout (hippocampal slice; 45 minutes of perfusion with normal bathing medium) | epileptiform activity and intrinsic optical signal during electrical stimulation (hippocampal slice; following treatment with furosemide) | entry of dye into low grade tumor tissue vs normal brain tissue [1] | retention of dye in malignant tissue [2] | peak optical change, normal brain (rat glioma [3]) | peak optical change, tumor (rat glioma [3]) | dye clearance, normal vs tumor region (rat glioma [3]; iv) | duration of prolonged increase in optical signal in the tumor (rat glioma [4]) | dye uptake rise time, normal (rat glioma [4]) | onset of optical signal change after dye injection (rat glioma [4]) | peak percentage difference change, tumor (rat glioma [4]) |
| --- | --- | --- | --- | --- | --- | --- | --- | --- | --- | --- | --- | --- | --- |
| NS(=O)(=O)c1cc(C(=O)O)c(NCc2ccco2)cc1Cl [furosemide] | blocked | blocked | restoration of the initial response pattern | blocks the epileptiform activity and the intrinsic optical signal | – | – | – | – | – | – | – | – | – |
| CC1(C)C(/C=C/C=C/C=C/C=C2\N(CCCCS(=O)(=O)O)c3ccc4ccccc4c3C2(C)C)=[N+](CCCCS(=O)(=O)[O-])c2ccc3ccccc3c21 [indocyanine green] | – | – | – | – | enters low grade tumor tissue faster than normal brain tissue | retained significantly longer in malignant tissue than in benign tumor tissue | 7.8±2.3% | 13.1±3.9% | the normal tissue has cleared the dye, but dye is still retained in the tumor region | > 2 min | 2.4 %/sec | 2 to 3 s | 40.5±9.6% |
